For 27 compounds, IC50 results are on record in patent publication US11104674B2 (Hoffmann-La Roche Inc., priority 2016, dated 2021).

The experiment concerns HBsAg. The experiment in a line: HBsAg assay (chemiluminescence immunoassay of secreted HBsAg). The class given is cell-based, HBV. The settings on record: Hepatitis B virus, HepG2.2.15, HBsAg secretion, HepG2.2.15 cells, CLIA of culture supernatant. The method, boiled down: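 HepG2.2.15 cells, in duplicate, treated with three-fold serial compound dilutions (1% DMSO final); secreted HBsAg in supernatant quantified by chemiluminescence immunoassay; IC50 is the concentration reducing HBsAg secretion by 50% versus the DMSO control.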

Usually IC50 stands for the concentration that gives 50% inhibition. A high value points to lower potency. As to `CC1c2cnc(-c3ncccn3)nc2CCN1c1cc(NCCCCC(N)=O)cc(F)n1` (stereo not drawn) [Example 137, 5-[[2-Fluoro-6-(5-methyl-2-pyrimidin-2-yl-7,8-dihydro-5H-pyrido[4,3-d]pyrimidin-6-yl)-4-pyridyl]amino]pentanamide], the concentration for half-maximal inhibition (IC50) is 120 nM. `CC1c2cnc(-c3ncccn3)nc2CCN1c1cc(NC2CCS(=O)(=O)CC2)cc(F)n1` (stereo not drawn) [Example 138, N-(1,1-dioxothian-4-yl)-2-fluoro-6-(5-methyl-2-pyrimidin-2-yl-7,8-dihydro-5H-pyrido[4,3-d]pyrimidin-6-yl)pyridin-4-amine] registered an IC50 of 663 nM. In the case of `CC(=O)N1CC(Nc2cc(F)cc(N3CCc4nc(-c5ncccn5)ncc4C3C)n2)C1` (stereo not drawn) [Example 139, 1-[3-[[4-fluoro-6-(5-methyl-2-pyrimidin-2-yl-7,8-dihydro-5H-pyrido[4,3-d]pyrimidin-6-yl)-2-pyridyl]amino]azetidin-1-yl]ethanone], the IC50 amounted to 1550 nM. This IC50 lies about 2.3-fold higher than the previous one. The compound `CC(=O)N1CC(Nc2cc(F)nc(N3CCc4nc(-c5ncccn5)ncc4C3C)c2)C1` (stereo not drawn) [Example 140, 1-[3-[[2-fluoro-6-(5-methyl-2-pyrimidin-2-yl-7,8-dihydro-5H-pyrido[4,3-d]pyrimidin-6-yl)-4-pyridyl]amino]azetidin-1-yl]ethanone] gave an IC50 of 972 nM. `CC1c2cnc(-c3ncccn3)nc2CCN1c1cc(N(C)CCCCC(N)=O)cc(F)n1` (stereo not drawn) [Example 141, 5-[[2-fluoro-6-(5-methyl-2-pyrimidin-2-yl-7,8-dihydro-5H-pyrido[4,3-d]pyrimidin-6-yl)-4-pyridyl]-methyl-amino]pentanamide] showed an IC50 of 43 nM. For `CC1c2cnc(-c3ncccn3)nc2CCN1c1cc(F)cc(N(C)CCCCC(N)=O)n1` (stereo not drawn) [Example 142, 5-[[4-fluoro-6-(5-methyl-2-pyrimidin-2-yl-7,8-dihydro-5H-pyrido[4,3-d]pyrimidin-6-yl)-2-pyridyl]-methyl-amino]pentanamide], the half-inhibitory concentration (IC50) worked out at 25 nM.

Regarding `CC1c2cnc(-c3ncccn3)nc2CCN1c1cc(N(CCCCC(N)=O)CC2CC2)cc(F)n1` (stereo not drawn) [Example 143, 5-[Cyclopropylmethyl-[2-fluoro-6-(5-methyl-2-pyrimidin-2-yl-7,8-dihydro-5H-pyrido[4,3-d]pyrimidin-6-yl)-4-pyridyl]amino]pentanamide], half-maximal inhibition (IC50) was put at 176 nM. In turn, `CC1c2cnc(-c3ncccn3)nc2CCN1c1cc(N2CC(C#N)C2)cc(F)n1` (stereo not drawn) [Example 144, 1-[2-Fluoro-6-(5-methyl-2-pyrimidin-2-yl-7,8-dihydro-5H-pyrido[4,3-d]pyrimidin-6-yl)-4-pyridyl]azetidine-3-carbonitrile] registered an IC50 of 28 nM. This IC50 lies about 6.3-fold lower than the previous one. To `CC1c2cnc(-c3ncccn3)nc2CCN1c1cc(N2CC(C(=O)O)CC2=O)cc(F)n1` (stereo not drawn) [Example 145, 1-[2-Fluoro-6-(5-methyl-2-pyrimidin-2-yl-7,8-dihydro-5H-pyrido[4,3-d]pyrimidin-6-yl)-4-pyridyl]-5-oxo-pyrrolidine-3-carboxylic acid] belongs 5340 nM; to `CC1c2cnc(-c3ncccn3)nc2CCN1c1cc(N2CCS(=O)(=O)CC2)cc(F)n1` (stereo not drawn) [Example 146, 4-[2-Fluoro-6-(5-methyl-2-pyrimidin-2-yl-7,8-dihydro-5H-pyrido[4,3-d]pyrimidin-6-yl)-4-pyridyl]-1,4-thiazinane1,1-dioxide], 38 nM; to `CC1c2cnc(-c3ncccn3)nc2CCN1c1cc(F)nc(N2CCC2)c1` (stereo not drawn) [Example 147, 6-[2-(Azetidin-1-yl)-6-fluoro-4-pyridyl]-5-methyl-2-pyrimidin-2-yl-7,8-dihydro-5H-pyrido[4,3-d]pyrimidine], 18 nM. `COC1CN(c2cc(N3CCc4nc(-c5ncccn5)ncc4C3C)cc(F)n2)C1` (stereo not drawn) [Example 148, 6-[2-Fluoro-6-(3-methoxyazetidin-1-yl)-4-pyridyl]-5-methyl-2-pyrimidin-2-yl-7,8-dihydro-5H-pyrido[4,3-d]pyrimidine] returned an IC50 of 21 nM. In turn, `CC1c2cnc(-c3ncccn3)nc2CCN1c1cc(F)nc(N2CC(F)(F)C2)c1` (stereo not drawn) [Example 149, 6-[2-(3,3-Difluoroazetidin-1-yl)-6-fluoro-4-pyridyl]-5-methyl-2-pyrimidin-2-yl-7,8-dihydro-5H-pyrido[4,3-d]pyrimidine] showed an IC50 of 20 nM. For the compound `CC1c2cnc(-c3ncccn3)nc2CCN1c1cc(F)nc(N2CC(F)C2)c1` (stereo not drawn) [Example 150, 6-[2-Fluoro-6-(3-fluoroazetidin-1-yl)-4-pyridyl]-5-methyl-2-pyrimidin-2-yl-7,8-dihydro-5H-pyrido[4,3-d]pyrimidine], the IC50 turned out to be 20 nM.

Compound `CC1c2cnc(-c3ncccn3)nc2CCN1c1cc(N2CC3(COC3)CC2=O)cc(F)n1` (stereo not drawn) [Example 151, 7-[2-Fluoro-6-(5-methyl-2-pyrimidin-2-yl-7,8-dihydro-5H-pyrido[4,3-d]pyrimidin-6-yl)-4-pyridyl]-2-oxa-7-azaspiro[3.4]octan-6-one] showed an IC50 of 27 nM. To `CC1CCN(c2cc(F)nc(N3CCc4nc(-c5ncccn5)ncc4C3C)c2)C1=O` (stereo not drawn) [Example 152, 1-[2-Fluoro-6-(5-methyl-2-pyrimidin-2-yl-7,8-dihydro-5H-pyrido[4,3-d]pyrimidin-6-yl)-4-pyridyl]-3-methyl-pyrrolidin-2-one] belongs 3 nM; to `CC1c2cnc(-c3ncccn3)nc2CCN1c1cc(N2CC(CO)CC2=O)cc(F)n1` (stereo not drawn) [Example 153, 1-[2-Fluoro-6-(5-methyl-2-pyrimidin-2-yl-7,8-dihydro-5H-pyrido[4,3-d]pyrimidin-6-yl)-4-pyridyl]-4-(hydroxymethyl)pyrrolidin-2-one], 32 nM; to `CC(=O)N(C)c1cc(F)nc(N2CCc3nc(-c4ncccn4)ncc3C2C)c1` (stereo not drawn) [Example 154, N-[2-Fluoro-6-(5-methyl-2-pyrimidin-2-yl-7,8-dihydro-5H-pyrido[4,3-d]pyrimidin-6-yl)-4-pyridyl]-N-methyl-acetamide], 69 nM. Turning to `CCC(=O)N(C)c1cc(F)nc(N2CCc3nc(-c4ncccn4)ncc3C2C)c1` (stereo not drawn) [Example 155, N-[2-Fluoro-6-(5-methyl-2-pyrimidin-2-yl-7,8-dihydro-5H-pyrido[4,3-d]pyrimidin-6-yl)-4-pyridyl]-N-methyl-propanamide], inhibition was half-maximal at 86 nM (IC50). Compound `CC1c2cnc(-c3ncccn3)nc2CCN1c1cc(N(C)C(=O)C2CC2)cc(F)n1` (stereo not drawn) [Example 156, N-[2-Fluoro-6-(5-methyl-2-pyrimidin-2-yl-7,8-dihydro-5H-pyrido[4,3-d]pyrimidin-6-yl)-4-pyridyl]-N-methyl-cyclopropanecarboxamide] showed a 50% inhibitory concentration (IC50) of 30 nM. This IC50 lies about 2.9-fold lower than the previous one. Consider `CC1c2cnc(-c3ncccn3)nc2CCN1c1cc(N2CCNC2=O)cc(F)n1` (stereo not drawn) [Example 157, 1-[2-Fluoro-6-(5-methyl-2-pyrimidin-2-yl-7,8-dihydro-5H-pyrido[4,3-d]pyrimidin-6-yl)-4-pyridyl]imidazolidin-2-one], for which half-maximal inhibition (IC50) was put at 6 nM. Against the preceding compound, the IC50 is about 5-fold lower. In the case of `CC1c2cnc(-c3ncccn3)nc2CCN1c1cc(F)nc(N2CC3(COC3)C2)c1` (stereo not drawn) [Example 158, 6-[6-Fluoro-4-(5-methyl-2-pyrimidin-2-yl-7,8-dihydro-5H-pyrido[4,3-d]pyrimidin-6-yl)-2-pyridyl]-2-oxa-6-azaspiro[3.3]heptane], the IC50 worked out at 48 nM. `CC1c2cnc(-c3ncccn3)nc2CCN1c1cc(N(C)S(C)(=O)=O)cc(F)n1` (stereo not drawn) [Example 159, N-[2-fluoro-6-(5-methyl-2-pyrimidin-2-yl-7,8-dihydro-5H-pyrido[4,3-d]pyrimidin-6-yl)-4-pyridyl]-N-methyl-methanesulfonamide] had an IC50 of 14 nM. Compared with the last compound, the IC50 is about 3.4-fold lower. For the compound `CC1c2cnc(-c3ncccn3)nc2CCN1c1cc(N(C)S(=O)(=O)C2CC2)cc(F)n1` (stereo not drawn) [Example 160, N-[2-fluoro-6-(5-methyl-2-pyrimidin-2-yl-7,8-dihydro-5H-pyrido[4,3-d]pyrimidin-6-yl)-4-pyridyl]-N-methyl-cyclopropanesulfonamide], the IC50 was 6 nM. For `CC1c2cnc(-c3ncccn3)nc2CCN1c1cc(N(C)S(=O)(=O)c2ccccc2)cc(F)n1` (stereo not drawn) [Example 161, N-[2-Fluoro-6-(5-methyl-2-pyrimidin-2-yl-7,8-dihydro-5H-pyrido[4,3-d]pyrimidin-6-yl)-4-pyridyl]-N-methyl-benzenesulfonamide], 5 nM corresponded to half-maximal inhibition (IC50). For `CC1c2cnc(-c3ncccn3)nc2CCN1c1cc(N2CCCCS2(=O)=O)cc(F)n1` (stereo not drawn) [Example 162, 2-[2-Fluoro-6-(5-methyl-2-pyrimidin-2-yl-7,8-dihydro-5H-pyrido[4,3-d]pyrimidin-6-yl)-4-pyridyl]thiazinane1,1-dioxide], the IC50 is 15 nM. This IC50 lies about 3-fold higher than the previous one. The value for `CC1c2cnc(-c3ncccn3)nc2CCN1c1cc(N(C)C(=O)c2ccccc2)cc(F)n1` (stereo not drawn) [Example 163, N-[2-Fluoro-6-(5-methyl-2-pyrimidin-2-yl-7,8-dihydro-5H-pyrido[4,3-d]pyrimidin-6-yl)-4-pyridyl]-N-methyl-benzamide] was 91 nM.
